Experimental data taken from US11384078B2, “5,6-fused-bicyclic compounds and compositions for the treatment of parasitic diseases” (NOVARTIS AG, priority 2017, dated 2022).

Tests used:
Type in all cases: cell-based
[1] = test system: Trypanosoma cruzi amastigotes cultured in 3T3 fibroblast cells; assay: Assay for growth inhibition of kinetoplastid parasite Trypanosoma cruzi (beta-galactosidase Tulahuen strain, CPRG readout); conditions: Trypanosoma cruzi, Fibroblast, T. cruzi amastigotes in 3T3 fibroblast cells; read-out: Buckner infectious T. cruzi EC50
Procedure, shortened: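 3T3 fibroblasts (1,000 cells/well) plated overnight, treated with compound in DMSO, then infected with 10,000 Lac-Z-expressing Tulahuen trypomastigotes. After 6 days, 0.6 mM CPRG with 0.6% NP-40 added for 2 h at room temperature; absorbance gives relative intracellular amastigote numbers. Benznidazole and nifurtimox serve as positive controls.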

[2] = test system: Trypanosoma brucei brucei (Lister 427) strain; assay: Assay for growth inhibition against Trypanosoma brucei brucei (Cell TiterGlo ATP luminescence); conditions: Trypanosoma brucei, T. brucei brucei (Lister 427); read-out: T. Brucei (HAT) EC50
Procedure, shortened: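 Growth read-out is cellular ATP by CellTiter-Glo luminescence, measured 30 min after reagent addition, following 2-day incubation at 37 °C in CO2. Parasites (10,000/mL, HMI-9 plus 10% FBS and 10% serum plus) faced 10 threefold dilutions in duplicate; IC50 taken as 50% growth inhibition versus untreated.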

[3] = test system: L. donovani HU3 strain in mouse peritoneal macrophages; assay: Assay for inhibition of parasitemia of Leishmania donovani in mouse macrophages (SYBR Green nuclei count, high-content imaging); conditions: Leishmania donovani, Peritoneal macrophage, L. donovani in mouse peritoneal macrophages; read-out: L. donovani in Mouse Macrophages EC50
Procedure, shortened: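 Parasite numbers were counted from SYBR Green-stained nuclei imaged by high-content microscopy after paraformaldehyde fixation and Triton permeabilization. Before this, compound was applied for 5 days at 37° C to BALB/c peritoneal macrophages (2×10^4/well) that had been exposed 24 h to 4×10^5 L. donovani HU3 amastigotes harvested from infected mouse spleens.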

[4] = test system: Leishmania donovani axenic amastigote; assay: In vitro assay for growth inhibition of Leishmania donovani axenic amastigote (Cell TiterGlo luminescence); conditions: Leishmania donovani, L. donovani axenic amastigotes in vitro; read-out: L. donovani amastigotes EC50
Procedure, shortened: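 Compound-treated wells received 9600 axenic amastigotes in RPMI 1640-based medium at pH 5.5 (37 °C, 5% CO2). Growth measured as ATP luminescence (CellTiter-Glo) after 2-day incubation; DMSO and reference compounds served as controls.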

Cc1ncoc1C(=O)Nc1ccc(F)c(-n2cc3cc(C(C)C)cnc3n2)c1 [Compound 73, N-{4-fluoro-3-[5-(propan-2-yl)-2H-pyrazolo[3,4-b]pyridin-2-yl]phenyl}-4-methyl-1,3-oxazole-5-carboxamide]
EC50 [1]: 57 nM | EC50 [2]: 37 nM | EC50 [3]: 220 nM | EC50 [4]: 100 nM

Cc1nc(C(=O)Nc2ccc(F)c(-n3cc4cc(C(C)C)cnc4n3)c2)c(C)o1 [Compound 74, N-{4-fluoro-3-[5-(propan-2-yl)-2H-pyrazolo[3,4-b]pyridin-2-yl]phenyl}-2,5-dimethyl-1,3-oxazole-4-carboxamide]
EC50 [1]: 57 nM | EC50 [2]: 110 nM | EC50 [3]: 820 nM | EC50 [4]: 760 nM

CC(C)c1cnc2nn(-c3cc(NC(=O)c4cnc(C5CC5)o4)ccc3F)cc2c1 [Compound 75, 2-cyclopropyl-N-{4-fluoro-3-[5-(propan-2-yl)-2H-pyrazolo[3,4-b]pyridin-2-yl]phenyl}-1,3-oxazole-5-carboxamide]
EC50 [1]: 120 nM | EC50 [2]: 170 nM | EC50 [3]: 170 nM | EC50 [4]: 200 nM

Cc1nc(C2CC2)oc1C(=O)Nc1ccc(F)c(-n2cc3cc(C(C)C)cnc3n2)c1 [Compound 76, 2-cyclopropyl-N-{4-fluoro-3-[5-(propan-2-yl)-2H-pyrazolo[3,4-b]pyridin-2-yl]phenyl}-4-methyl-1,3-oxazole-5-carboxamide]
EC50 [1]: 410 nM | EC50 [2]: 480 nM | EC50 [3]: 930 nM | EC50 [4]: 1100 nM

Cc1nc(C(F)(F)F)oc1C(=O)Nc1ccc(F)c(-n2cc3cc(C(C)C)cnc3n2)c1 [Compound 78, N{4-fluoro-3-[5-(propan-2-yl)-2H-pyrazolo[3,4-b]pyridin-2-yl]phenyl}-4-methyl-2-(trifluoromethyl)-1,3-oxazole-5-carboxamide]
EC50 [1]: 450 nM | EC50 [2]: 530 nM | EC50 [3]: 870 nM | EC50 [4]: 800 nM

Cc1nc(COC(C)(C)C)oc1C(=O)Nc1ccc(F)c(-n2cc3cc(C(C)C)cnc3n2)c1 [Compound 79, 2-[(tert-butoxy)methyl]-N-{4-fluoro-3-[5-(propan-2-yl)-2H-pyrazolo[3,4-b]pyridin-2-yl]phenyl}-4-methyl-1,3-oxazole-5-carboxamide]
EC50 [1]: 140 nM | EC50 [2]: 350 nM | EC50 [3]: 2400 nM | EC50 [4]: 3000 nM

CC(C)c1cnc2nn(-c3cc(NC(=O)C4CCCCO4)ccc3F)cc2c1 (stereo not shown) [Compound 80, N-{4-fluoro-3-[5-(propan-2-yl)-2H-pyrazolo[3,4-b]pyridin-2-yl]phenyl}oxane-2-carboxamide]
EC50 [1]: 92 nM | EC50 [2]: 170 nM | EC50 [3]: 410 nM | EC50 [4]: 410 nM

Cc1nc(C(=O)Nc2ccc(F)c(-n3cc4cc(C(C)C)cnc4n3)c2)oc1C [Compound 81, N-{4-fluoro-3-[5-(propan-2-yl)-2H-pyrazolo[3,4-b]pyridin-2-yl]phenyl}-4,5-dimethyl-1,3-oxazole-2-carboxamide]
EC50 [1]: 420 nM | EC50 [2]: 360 nM | EC50 [3]: 3600 nM | EC50 [4]: 3160 nM

CC(C)c1cnc2nn(-c3cc(NC(=O)c4ccccn4)ccc3F)cc2c1 [Compound 82, N-{4-fluoro-3-[5-(propan-2-yl)-2H-pyrazolo[3,4-b]pyridin-2-yl]phenyl}pyridine-2-carboxamide]
EC50 [1]: 59 nM | EC50 [2]: 54 nM | EC50 [3]: 310 nM | EC50 [4]: 470 nM

Cc1ncc(C(=O)Nc2ccc(F)c(-n3cc4cc(C(C)C)cnc4n3)c2)o1 [Compound 83, N-{4-fluoro-3-[5-(propan-2-yl)-2H-pyrazolo[3,4-b]pyridin-2-yl]phenyl}-2-methyl-1,3-oxazole-5-carboxamide]
EC50 [1]: 7.3 nM | EC50 [2]: < 23 nM | EC50 [3]: 7 nM | EC50 [4]: 14 nM

CC(C)c1cnc2nn(-c3cc(NC(=O)c4ccc(C#N)cn4)ccc3F)cc2c1 [Compound 84, 5-cyano-N-{4-fluoro-3-[5-(propan-2-yl)-2H-pyrazolo[3,4-b]pyridin-2-yl]phenyl}pyridine-2-carboxamide]
EC50 [1]: 3700 nM | EC50 [2]: 2030 nM | EC50 [3]: 6900 nM | EC50 [4]: 2400 nM

Cc1nc(C(=O)Nc2ccc(F)c(-n3cc4cc(C(C)C)cnc4n3)c2)co1 [Compound 85, N-{4-fluoro-3-[5-(propan-2-yl)-2H-pyrazolo[3,4-b]pyridin-2-yl]phenyl}-2-methyl-1,3-oxazole-4-carboxamide]
EC50 [1]: 150 nM | EC50 [2]: 180 nM | EC50 [3]: 750 nM | EC50 [4]: 1200 nM

CC(C)c1cnc2nn(-c3cc(NC(=O)c4nc(Cl)ccc4F)ccc3F)cc2c1 [Compound 86, 6-chloro-3-fluoro-N-{4-fluoro-3-[5-(propan-2-yl)-2H-pyrazolo[3,4-b]pyridin-2-yl]phenyl}pyridine-2-carboxamide]
EC50 [1]: 14 nM | EC50 [2]: < 23 nM | EC50 [3]: 120 nM | EC50 [4]: 130 nM

CC(C)c1cnc2nn(-c3cc(NC(=O)c4cnccn4)ccc3F)cc2c1 [Compound 87, N-(4-fluoro-3-(5-isopropyl-2H-pyrazolo[3,4-b]pyridin-2-yl)phenyl)pyrazine-2-carboxamide]
EC50 [1]: 16 nM | EC50 [2]: < 23 nM | EC50 [3]: 71 nM | EC50 [4]: 62 nM

CC(C)c1cnc2nn(-c3cc(NC(=O)C4CCCO4)ccc3F)cc2c1 (stereo not shown) [Compound 88, N-{4-fluoro-3-[5-(propan-2-yl)-2H-pyrazolo[3,4-b]pyridin-2-yl]phenyl}oxolane-2-carboxamide]
EC50 [1]: 1800 nM | EC50 [2]: 1500 nM | EC50 [3]: 3200 nM | EC50 [4]: 5300 nM

CC(C)c1cnc2nn(-c3cc(NC(=O)c4cc(Cl)ccc4F)ccc3F)cc2c1 [Compound 89, 5-chloro-2-fluoro-N-{4-fluoro-3-[5-(propan-2-yl)-2H-pyrazolo[3,4-b]pyridin-2-yl]phenyl}benzamide]
EC50 [1]: 32 nM | EC50 [2]: 33 nM | EC50 [3]: 270 nM | EC50 [4]: 470 nM

CC(C)c1cnc2nn(-c3cc(NC(=O)C4CC4)ccc3F)cc2c1 [Compound 90, N-{4-fluoro-3-[5-(propan-2-yl)-2H-pyrazolo[3,4-b]pyridin-2-yl]phenyl}cyclopropanecarboxamide]
EC50 [1]: 140 nM | EC50 [2]: 77 nM | EC50 [3]: 310 nM | EC50 [4]: 280 nM

O=C(Nc1ccc(F)c(-n2cc3cc(C4CC4)cnc3n2)c1)N1CCC1 [Compound 91, N-(3-{5-cyclopropyl-2H-pyrazolo[3,4-b]pyridin-2-yl}-4-fluorophenyl)azetidine-1-carboxamide]
EC50 [1]: 4.1 nM | EC50 [2]: < 23 nM | EC50 [3]: 8.6 nM | EC50 [4]: 8.7 nM

O=C(Nc1ccc(F)c(-n2cc3cc(C4CCC4)cnc3n2)c1)N1CCC1 [Compound 93, N-(3-{5-cyclobutyl-2H-pyrazolo[3,4-b]pyridin-2-yl}-4-fluorophenyl)azetidine-1-carboxamide]
EC50 [1]: 7 nM | EC50 [2]: < 23 nM | EC50 [3]: 32 nM | EC50 [4]: 34 nM

CC(C)(C)Cc1cnc2nn(-c3cc(NC(=O)N4CCC4)ccc3F)cc2c1 [Compound 94, N-{3-[5-(2,2-dimethylpropyl)-2H-pyrazolo[3,4-b]pyridin-2-yl]-4-fluorophenyl}azetidine-1-carboxamide]
EC50 [1]: 1.8 nM | EC50 [2]: < 23 nM | EC50 [3]: 8.1 nM | EC50 [4]: 12 nM

CCCC(C)c1cnc2nn(-c3cc(NC(=O)N4CCC4)ccc3F)cc2c1 (stereo not shown) [Compound 95, N-{4-fluoro-3-[5-(pentan-2-yl)-2H-pyrazolo[3,4-b]pyridin-2-yl]phenyl}azetidine-1-carboxamide]
EC50 [1]: 170 nM | EC50 [2]: 85 nM | EC50 [3]: 350 nM | EC50 [4]: 420 nM

CCC(C)c1cnc2nn(-c3cc(NC(=O)N4CCC4)ccc3F)cc2c1 (stereo not shown) [Compound 96, N-{3-[5-(butan-2-yl)-2H-pyrazolo[3,4-b]pyridin-2-yl]-4-fluorophenyl}azetidine-1-carboxamide]
EC50 [1]: 18 nM | EC50 [2]: < 23 nM | EC50 [3]: 21 nM | EC50 [4]: 23 nM

O=C(Nc1ccc(F)c(-n2cc3cc(CC4CCC4)cnc3n2)c1)N1CCC1 [Compound 97, N-{3-[5-(cyclobutylmethyl)-2H-pyrazolo[3,4-b]pyridin-2-yl]-4-fluorophenyl}azetidine-1-carboxamide]
EC50 [1]: 8.8 nM | EC50 [2]: < 23 nM | EC50 [3]: 440 nM | EC50 [4]: 12 nM

CC(C)CCc1cnc2nn(-c3cc(NC(=O)N4CCC4)ccc3F)cc2c1 [Compound 98, N-{4-fluoro-3-[5-(3-methylbutyl)-2H-pyrazolo[3,4-b]pyridin-2-yl]phenyl}azetidine-1-carboxamide]
EC50 [1]: 15 nM | EC50 [2]: < 23 nM | EC50 [3]: 23 nM | EC50 [4]: 25 nM

O=C(Nc1ccc(F)c(-n2cc3cc(-c4ccccn4)cnc3n2)c1)N1CCC1 [Compound 99, N-{4-fluoro-3-[5-(pyridin-2-yl)-2H-pyrazolo[3,4-b]pyridin-2-yl]phenyl}azetidine-1-carboxamide]
EC50 [1]: 1 nM | EC50 [2]: > 50000 nM | EC50 [3]: 2 nM | EC50 [4]: 1.3 nM
